Assay results reported in patent US20200290950A1, “ALKAMIDE COMPOUNDS AND USES THEREOF” (NORTH CAROLINA STATE UNIVERSITY, priority 2017, published 2020).

Assays:
[1] = system: RAW 264.7 macrophage-like cells; test: Fluo-4 calcium assay, RAW 264.7 cells; format: cell-based, mouse; settings: 1 μM A23187, 100 μM A15, at 1 min
Experimental: (§1) FIGS. 4A-4D. A15 inhibits A23187-stimulated calcium influx in RAW 264.7 and Jurkat cells. RAW 264.7 (FIG. 4A-4B) or Jurkat cells (FIG. 4C-4D) were loaded with fluo-4 AM using the Fluo-4 AM Direct™ Calcium Assay Kit and fluorescence was measured on a microplate reader. Cells were stimulated with 1 μM A23187 in combination with vehicle only or 100 μM A15. Bar graphs represent the means±SEM of the Δ in RFU's at 1 min post-A23187 stimulation from 3 independent experiments. Statistical analysis was performed using an unpaired Student's t-test, *p<0.05.
(§2) RBL-2H3, BMMC, RAW 264.7, or Jurkat cells were plated in clear-bottom, black, 96-well plates (BioExpress, Kaysville, Utah) and incubated overnight with media only or media containing IgE anti-DNP. […] Prior to stimulation, baseline fluorescent readings were measured from triplicate wells in 5 s intervals for 1 min using a Synergy HT microplate reader with 485/20 nm excitation and 528/20 nm emission filters. Cells were then treated with either 1 μM A23187 or 50 ng/mL DNP-BSA prepared in calcium- and magnesium-containing or calcium- and magnesium-free HBSS with 20 mM HEPES, and fluorescence was measured in 10 s intervals for 2 min. […] The average baseline fluorescence of each well was subtracted from the stimulated fluorescent values to calculate the change (Δ) in RFU's and graphed as shown.

RBL-2H3 cells [2] = test: PGE2 production, EIA, 8 hrs; format: cell-based, rat; settings: 1 μM A23187, only at 100 μM
Experimental: FIGS. 6A-6B. A15 inhibits de novo production of TNF-α and PGE2 from RBL-2H3 cells. RBL-2H3 cells were plated and incubated overnight prior to stimulation. Cells were stimulated with 1 μM A23187 in combination with the indicated doses of A15. Supernatants were collected 8 hrs later and TNF-α (FIG. 6A) or PGE2 (FIG. 6B) levels were measured using ELISA kits. Data shown are the means±SEM from 3 independent experiments. Statistical analysis was performed using a one-way ANOVA with Dunnett's post-hoc test, *p<0.05, **p<0.01, ***p<0.001.
Bone marrow cells were isolated from the femurs of 6-8 week old C57BL/6 mice and cultured in RPMI-1640 containing 10% heat-inactivated FBS, non-essential amino acids, HEPES buffer, sodium pyruvate, 100 U/mL penicillin, 100 μg/mL streptomycin, 5 ng/mL mIL-3, and 5 ng/mL mSCF for 4-6 weeks until mature, bone marrow-derived mast cells (BMMCs) were obtained, as described previously (Kuehn et al., 2010). Differentiation into >98% mast cells was confirmed through toluidine blue staining (1%, pH 1). RBL-2H3, RAW 264.7, and Jurkat cells were obtained from the American Type Culture Collection (Manassas, Va.). […] Optical density was determined using a Synergy HT microplate reader (BioTek Instruments, Inc, Winooski, Vt.). […]

Jurkat T cells = test: Fluo-4 calcium assay, Jurkat cells; format: cell-based; settings: 1 μM A23187, 100 μM A15, at 1 min
Experimental: as §1, §2

RBL-2H3 cells [3] = test: TNF-α ELISA, 18 hrs (Example 3); format: cell-based, rat; settings: 1 μM A23187, 18 hours
Experimental: FIGS. 25A-25B. […] RBL-2H3 cells were plated overnight and stimulated with 1 μM A23187 in the absence or presence of each alkamide for 18 h. Culture supernatants were analyzed for TNF-α levels by ELISA and experiments were performed in triplicate (FIG. 25A). Percent inhibition of TNF-α secretion for each alkamide listed in FIG. 25B. *P<0.05, **P<0.01, ***P<0.001, one-way ANOVA with Dunnett's post hoc test compared to vehicle (FIG. 25A) or A15 (FIG. 25B).
RBL-2H3 cells (1.0×10^5 cells) were incubated overnight in a 24 well plate at 37° C. with 5% CO2. Cells were washed with 1×PBS and stimulated with 1 μM A23187 for 18 hrs in the absence or presence of each compound. The cells were centrifuged (1200×g, 5 min) and the supernatants were collected. The concentration of TNF-α in the supernatants were determined using the TNF-α ELISA kit.

BMMCs = test: Fluo-4 calcium assay, BMMCs; format: cell-based, mouse
Experimental: FIGS. 3A-3H. A15 inhibits calcium influx in RBL-2H3 cells and BMMCs. RBL-2H3 cells (FIGS. 3A-3D) and BMMCs (FIGS. 3E-3H) were plated and incubated overnight prior to treatments. For DNP-BSA treatments, overnight incubation also included 1 μg/mL IgE anti-DNP. Prior to stimulation, cells were washed and loaded with the fluorescent, calcium-sensitive dye fluo-4 AM using the Fluo-4 AM Direct™ Calcium Assay Kit and fluorescence was measured on a microplate reader. Calcium influx was triggered in all experiments using either 1 μM A23187 or 50 ng/mL DNP-BSA, as indicated. Bar graphs represent the means±SEM of the Δ in RFU's at 1 min post-A23187- or DNP-BSA-stimulation from 3 independent experiments (FIGS. 3B, 3D, 3F, 3H). Statistical analysis was performed using a one-way ANOVA with Dunnett's post-hoc test, *p<0.05, **p<0.01, ***p<0.001.
RBL-2H3, BMMC, RAW 264.7, or Jurkat cells were plated in clear-bottom, black, 96-well plates (BioExpress, Kaysville, Utah) and incubated overnight with media only or media containing IgE anti-DNP. Cells were loaded with the calcium-sensitive dye fluo-4 AM using the Fluo-4 Direct™ Calcium Assay Kit (Thermo Fisher Scientific) according to the manufacturer's instructions by incubating at 37° C. for 30 min followed by 30 min at room temperature. Prior to stimulation, baseline fluorescent readings were measured from triplicate wells in 5 s intervals for 1 min using a Synergy HT microplate reader with 485/20 nm excitation and 528/20 nm emission filters. Cells were then treated with either 1 μM A23187 or 50 ng/mL DNP-BSA prepared in calcium- and magnesium-containing or calcium- and magnesium-free HBSS with 20 mM HEPES, and fluorescence was measured in 10 s intervals for 2 min. The final concentration of ethanol was 0.25% in these assays. The average baseline fluorescence of each well was subtracted from the stimulated fluorescent values to calculate the change (Δ) in RFU's and graphed as shown.

CCCCCCC/C=C/C=C/C(=O)NCC(C)C [A15, (2E,4E)-N-Isobutyldodeca-2,4-dienamide]
suppression of calcium influx [1]: 60.2%
production of PGE2 (RBL-2H3 cells [2]): weakly inhibited
suppression of calcium influx (Jurkat T cells): 43.6%
percent inhibition of TNF-α secretion (RBL-2H3 cells [3]): 79%
calcium response (BMMCs; BMMCs treated with A23187): blocked the calcium response
calcium response (BMMCs; BMMCs treated with IgE anti-DNP and DNP-BSA): blocked the calcium response
calcium response to compound itself (BMMCs; BMMCs, A15 alone): did not cause a calcium response
